In patent US20220347294A1, “COMPOSITIONS AND METHODS FOR INCREASING THE EFFICACY OF IMMUNOTHERAPIES AND VACCINES” (The Regents of the University of Michigan, priority 2019, published 2022):

Legend:
[1] = Fiber gel formation: inulin gel with added natural fibers or excipients; assay type: physicochemical; conditions: heated at 70° C. for 5 minutes, cooled overnight
Description: FIG. 24: Inulin gel was formed after adding various amounts of natural fibers or excipients. The values shown are the maximum amount of each ingredient that could be added to 23% w/w inulin gel without disrupting the gel formation.
Experiments were next conducted involving the formation of new fiber gels by combining inulin with other natural dietary fibers or pharmaceutical excipients. Briefly, inulin gels were manufactured by first mixing 23% w/w inulin together with other excipients, including resistant potato starch, pectin, guar gum, bean gum, gelatin, or glycerol. Other natural fibers would provide additional nutrient source for commensal microbiome, while other excipients served as thickening reagents in these formulations. The mixtures were then heated at 70° C. for 5 minutes, followed by cooling at room temperature overnight. During the manufacturing processes, both pre-dissolving and dry-blending were used in order to add the excipients, based on individual dissolutions in water. […] The ingredients were first mixed in water (top panel), heated at 70° C. for 5 minutes (middle panel), followed by cooling at room temperature overnight, leading to the formation of fiber gels (bottom panel) (FIG. 23).
Experiments were next conducted that varied the amount of natural fibers and excipients added to inulin gel and determined the ideal composition for forming fiber gels. […] The indicated values are the maximum amount of each ingredient that could be added to 23% w/w inulin gel without disrupting gel formation.

gut microbiota = assay: Gut microbiome analysis by 16S rRNA sequencing of fecal pellets; assay type: in vivo, BALB/c mice
Description: FIG. 4A-H: Responses of the diversity, richness, and structure of the gut microbiota. 1.5×10^5 CT26 cells were inoculated in BALB/c mice subcutaneously and gavaged from day 7 (5 times per week). α-PD-1 (100 μg per dose) was ip injected on days 11, 15, 19 and 23. The fecal pellets were collected on day 21 for 16s RNA analysis. (A) OTU number, (B) inverse Simposon diversity and (C) nonmetric multidimensional scaling (NMDS) score plot (based on Bray-Curtis) of gut microbiota in various groups. (D) Relative abundances of the gut microbiota at family level and […] genus level. (F) The relative abundances of lactobacillus, akkermansia, roseburia and Ruminococcus_1 in various groups. (G) The relationship of between the tumor sizes and the relative abundances of lactobacillus, akkermansia, roseburia and Ruminococcus_1. (H) The heatmap of SCFAs (lactate, propionate and butyrate) levels of various groups in fecal pellets. Data represent mean±SEM. *p<0.05, **p<0.01, ****p<0.0001, analysed by one-way ANOVA (A, B, F).
Tumor-bearing mice received treatments as indicated above. […] Pooled amplicon library was then sequenced on the Illumina MiSeq platform using the 500 cycle MiSeq V2 Reagent kit (catalog no. MS-102-2003) according to the manufacturer's instructions with modifications of the primer set with custom read 1/read 2 and index primers added to the reagent cartridge. […]

CT26 cells [2] = assay: Therapeutic oral gavage plus α-PD-1 in the CT26 tumor model; assay type: in vivo, BALB/c mice; conditions: for combination efficacy with α-PD-1 against tumor growth after reducing the dosage by half: 60 mg for inulin, 50 mg/Kg for melatonin
Description: (A) 1.5×10^5 CT26 cells were inoculated in BALB/c mice subcutaneously (sc) on day 0. Mice were gavaged from day 7 (5 times per week). On days 11, 15, 19 and 23, α-PD-1 was injected intraperitoneally (ip) at 100 μg per dose. (B) The average tumor growth curves for mice gavaged with various compounds. Data represent mean±SEM. (C) Individual tumor growth curves and (D) survival rate curves of various groups. […] All the data are from 2-3 independent experiments; n=10 (B, C, D), n=7-10 (E, F) *p<0.05, **p<0.01, analysed by two-way ANOVA (B), one-way ANOVA (E, F) or log-rank (Mantel-Cox) test.
(B) The average tumor growth curves and individual tumor growth curve for mice gavaged with inulin or inulin gel (60 mg/dosage). 1.5×10^5 CT26 cells were inoculated in BALB/c mice subcutaneously. Gavage started from day 7 (5 times per week) and 100 μg of α-PD-1 was ip injected on days 11, 15, 19, 23 and 27. (C) The survival rate curves of various groups. […] PBS was used as a control. […] Shown are the average and individual tumor growth curves for tumor-bearing mice. IgG antibody was used as a control group. Data represent mean SEM. All the data are from 2-3 independent experiments; n=10 (B, C), n=5 (D, I), n=10-15 (E), n=4-7 (G, F), *p<0.05, **p<0.01, ***p<0.001, analysed by one-way ANOVA (E, F), two-way ANOVA (B, I), or log-rank (Mantel-Cox) test (C).
Female C57BL/6 or BALB/c mice of 6-8-week old were obtained from Jackson Laboratory. BALB/c mice were inoculated with 1.5×10^5 CT26 cells per mouse, while C57BL/6 mice were inoculated with 1.2×10^6 MC38 cells per mouse on the right flank by subcutaneous injection on day 0. Tumor-bearing mice were randomly assigned to different groups on day 5. For prophylactic antitumor study, mice were received oral gavage with melatonin (100 mg/Kg bodyweight/dosage), EGCG (100 mg/Kg bodyweight/dosage), fucoidan (200 mg/Kg bodyweight/dosage), oligofructose (120 mg/dosage), or inulin (120 mg/dosage) three times for one week prior to tumor inoculation. After tumor inoculation, mice received oral gavage three times in the first week, followed by five times per week. Mice were injected i.p. with α-PD-1 antibody (100 μg/dosage) on days 10, 14, 18 and 22 post tumor inoculation. For the therapeutic therapy, mice were inoculated with tumor cells on day 0 as indicated above and treated with the indicated samples by oral gavage starting day 7 post tumor inoculation.

[3] = SCFAs measurement in fecal pellets; assay type: in vivo, mice; conditions: oral gavage of inulin
Description: Fresh fecal pellets of mice were collected and weighted on day 20 post tumor inoculation and treatments. Fecal pellets were homogenized in DI water and centrifuged at 3000×g for 5 min. The pH of the supernatant was detected by pH meter. For SCFAs measurement, SCFAs were extracted from the fecal pellets using Milli-Q water. The solution was centrifuged for 5 min at 10000×g (4° C.) to pellet bacteria and other solids. The supernatant was collected, and SCFAs were measured via ion chromatography in University of Michigan Biological Station. The concentration of SCFAs was determined using an external standard method.

CT26 cells [4] = assay: Prophylactic oral gavage plus α-PD-1 in the CT26 tumor model; assay type: in vivo, BALB/c mice
Description: FIG. 1A-F: In vivo screening of the candidate materials to prophylactically improve the anti-tumor efficacy of α-PD-1. (A) Mice were prophylactically gavaged various samples on day −7 for three times. Then 1.5×10^5 CT26 cells were inoculated in BALB/c mice subcutaneously (s.c.) on day 0. Mice were gavaged three times again in the first week post tumor inoculation and 5 times per week from day 7. α-PD-1 was i.p. injected on days 10, 14, 18 and 24 at 100 μg/dose. (B) Individual tumor growth curves and (C) average tumor growth curves for mice gavaged with various compounds. (D) Survival rate curves of various groups. (E) The average frequency of AH1-specific CD8^+ T cells in peripheral blood on day 22. (F) The representative scatter plots were measured via flow cytometry. Data represent mean±SEM. *p<0.05, **p<0.01, analyzed by two-way ANOVA (B), or t-test (E), log-rank (Mantel-Cox) test (D).
Among the FDA's list, five candidate materials were selected for the initial screening. Melatonin, found in pineal gland and gastrointestinal tracta, regulates sleep cycle and circadian rhythm. Epigallocatechin gallate (EGCG) is a natural antioxidant in plants. […]
Mice were cared for under the guidelines from federal, state and local. […] Tumor size was measured at preset time, and tumor volume was calculated as length×width^2. […]

[5] = system: AH1-specific CD8+ T cells; assay: Tetramer analysis of AH1-specific CD8+ T cells in PBMCs; assay type: in vivo, BALB/c mice; conditions: for frequencies of AH1-specific CD8+ T cells among PBMCs, fold greater than α-PD-1 treatment alone: prophylactic oral gavage combined with α-PD-1 IgG, peripheral blood day 22
Description: The effect of these materials were next tested on systemic immune responses. The surrogate marker of tumor specific antigen, MHC-I minimal epitope of CT-26 gp70 (AH1) (H-2L^d-restricted SPSYVYHQF (SEQ ID NO.: 1)), was employed to quantitate the frequency of AH1-specific CD8^+ T cells among peripheral blood mononuclear cells (PBMCs). Mice orally gavaged with inulin and melatonin combined with α-PD-1 IgG induced 1.7-fold and 1.8-fold greater frequencies of AH1-specific CD8^+ T cells, compared with α-PD-1 treatment alone (FIGS. 1E and F).
Peripheral blood mononuclear cells (PBMCs) were collected at preset times to analyze tumor antigen-specific CD8^+ T cells in the systemic circulation. Red blood cells were lysed, and the remaining cells were blocked with anti-CD16/32 antibody for 10 min and stained with peptide-MHC tetramer, including H-2L^d-restricted SPSYVYHQF (SEQ ID NO.: 1) or H-2D^b-restricted ASMTNMELM (SEQ ID NO.: 3). Both the tetramers were provided by NIH Tetramer Core Facility. Cells were also stained anti-CD8-APC (BD Biosciences, #553035) and DAPI for flow cytometric analysis.

CT26 tumor = assay: Tumor microenvironment analysis (tumor-infiltrating cells, flow cytometry); assay type: in vivo, BALB/c mice; conditions: combined with α-PD-1 IgG, day 24
Description: After treatment with various samples, tumor tissues were excised at preset time points for analysis of tumor-infiltrating T cells. Tumor tissues were excised, cut into small pieces, and incubated with collagenase type IV (1 mg/ml) and of DNase I (0.1 mg/ml) with gentle shaking. After 30 min, cell suspension was filtered through a 70-μm strainer. Cells were washed with FACS buffer and blocked with anti-CD16/32 antibody. Cells were then stained with various antibodies (CD4 Monoclonal Antibody (GK1.5)-PE (eBioscience), APC-Anti-CD45 Rat Monoclonal Antibody (clone: 30-F11), FITC-Anti-CD45 Rat Monoclonal Antibody (clone: 30-F11), FITC-Rat Anti-Mouse CD8a Clone 53-6.7 (BD Biosciences), PE labeled H-2L-restricted SPSYVYHQF (SEQ ID NO.: 1), FITC-Anti-CD86 Rat Monoclonal Antibody (clone: GL-1, BioLegend), PE-CD11c Armenian Hamster anti Mouse (Clone: N418, eBioscience), PE-Cy7-Anti-mouse PD-1 (clone: 29F.1A12, BioLegend), FITC-CD44 Rat anti-Human/Mouse (clone: IM7, eBioscience), PE-Cy7-CD62L Monoclonal Antibody (MEL-14) (eBioscience), PE-Tcf1/Tcf7 (C63D9) Rabbit mAb (Cell Signaling Technology, #14456), PE-Cy7-Anti-mouse CD86 (Clone: GL1, BD Bioscience), FITC anti-mouse/human CD11b (M1/70, BioLegend), PE-anti-mouse F4/80 (BM8, BioLegend), or APC anti-mouse CD206 (MMR, BioLegend)). The cells were washed and stained with DAPI, or 7-AAD, or efluor 450 for flow cytometric analysis.

[6] = Potato starch gel formation; assay type: physicochemical; conditions: in water, gentle stirring at 70° C., when the swelling was completed
Description: FIG. 22: Food grade potato starch was pre-hydrated at concentrations of 0.1, 0.5, 2.5, and 5% w/v in water, followed by gentle stirring at 70° C. After cooling, gel formation was examined.
Experiments were next conducted that examined gel formation using potato starch, another prebiotic natural fiber. The impact of potato starch concentration on gel formation was examined. Food grade potato starch (Bob's Red Mill) was pre-hydrated at desired concentrations of 0.1, 0.5, 2.5, and 5% w/v in water, followed by gentle stirring at 70° C. […] Potato starch was instantly gelatinized at concentrations above 5% w/v when the swelling was completed.

**Q.** Which “maximum amount of ingredient that could be added to 23% w/w inulin gel without disrupting gel formation” value [1] does the source give for guar gum here?
**A.** The value was 0.5 % (w/w).

**Q.** For inulin, which “abundance of Roseburia in the gut” value (gut microbiota; oral gavage with α-PD-1) is on record?
**A.** The value was “increased”.

**Q.** What about the “relative abundance of Akkermansia, Lactobacillus, Ruminococcus, and Butyricicoccus” value (gut microbiota; oral inulin followed by α-PD-1, compared with α-PD-1 alone or PBS group) of the same molecule?
**A.** The value was “increased”.

**Q.** What about the “combination efficacy with α-PD-1 against tumor growth after reducing the dosage by half” value (CT26 cells [2]) of the same molecule?
**A.** The value was “did not compromise”.

**Q.** And the animal survival (CT26 cells [2]; therapeutic oral gavage from day 7, combined with α-PD-1 IgG)?
**A.** Its animal survival is “extended animal survival”.

**Q.** What about the anti-tumor efficacy (CT26 cells [2]; therapeutic oral gavage from day 7, combined with α-PD-1 IgG, compared among candidate agents) of the same molecule?
**A.** Its anti-tumor efficacy is “strongest anti-tumor efficacy”.

**Q.** What about the “concentration of lactate, propionate and butyrate in fecal pellets” value [3] of the same molecule?
**A.** Its value is “increased”.

**Q.** What about the “anti-tumor efficacy compared with α-PD-1 alone” value (CT26 cells [4]; prophylactic oral gavage from one week before tumor inoculation, combined with α-PD-1 i.p. 100 μg/dose) of the same molecule?
**A.** The value was “best efficacy”.

**Q.** And the “mice still surviving on day 50” value (CT26 cells [4]; prophylactic oral gavage, inulin 120 mg/dosage, combined with α-PD-1)?
**A.** Its value is 60%.

**Q.** What about the “frequencies of AH1-specific CD8+ T cells among PBMCs, fold greater than α-PD-1 treatment alone” value [5] of the same molecule?
**A.** Its value is 1.7 fold.

**Q.** And the “AH1-specific CD8+ T cells among PBMCs” value ([5]; therapeutic setting, day 18 and 24, combined with α-PD-1)?
**A.** Its value is “significantly higher”.

**Q.** And the “intratumoral infiltration of T cells compared with α-PD-1 IgG alone” value (CT26 tumor)?
**A.** The value was “significantly enhanced”.

**Q.** With pectin as the molecule, how does the “maximum amount of ingredient that could be added to 23% w/w inulin gel without disrupting gel formation” value [1] read?
**A.** The value was 2 % (w/w).

**Q.** For `OCC(O)CO` [glycerol], which “maximum amount of ingredient that could be added to 23% w/w inulin gel without disrupting gel formation” value [1] is on record?
**A.** Its value is 50 % (w/w).

**Q.** With gelatin as the molecule, how does the “maximum amount of ingredient that could be added to 23% w/w inulin gel without disrupting gel formation” value [1] read?
**A.** Its value is 5.0 % (w/w).

**Q.** What does the source list for `COc1ccc2[nH]cc(CCNC(C)=O)c2c1` [melatonin, reference compound]?
**A.** combination efficacy with α-PD-1 against tumor growth after reducing the dosage by half (CT26 cells [2]): did not compromise; frequencies of AH1-specific CD8+ T cells among PBMCs, fold greater than α-PD-1 treatment alone [5]: 1.8 fold; intratumoral infiltration of T cells compared with α-PD-1 IgG alone (CT26 tumor): significantly enhanced

**Q.** Which results are given for potato starch?
**A.** maximum amount of ingredient that could be added to 23% w/w inulin gel without disrupting gel formation [1]: 5 % (w/w); concentration at which potato starch was instantly gelatinized [6]: above 5 % w/v
